The results in this text go back to patent US10995101B2, “2-oxo-thiazole derivatives as A2A inhibitors and compounds for use in the treatment of cancers” (iTeos Therapeutics SA, priority 2017, dated 2021).

Molecules are shown by their SMILES.

The term IC50 denotes the concentration at which inhibition is half-maximal. For orientation: efflux ratio means a quotient of directional permeabilities that is used to spot active efflux.

The target of data set [1] is T1, A2A receptor (Homo sapiens, UniProt P29274). The experiment in a line: Inhibition of cAMP production in HEK cells. As to conditions: HEK-293 cells with A2A receptor. It is filed as cell-based. (Cyclic AMP is a second messenger, typically raised through Gs and lowered through Gi signalling.)
Data set [2] can be described thus: in vitro. As to conditions: human, Caco-2, pH 7.4.
Protocol: 2 μM dosing solutions for reference compounds and test compounds are prepared by spiking the appropriate volume of intermediate solution to TB with and without 1 μM Zosuquidar. The final concentration of DMSO is no more than 1% (v/v).
Caco-2 cells are grown in MEM supplemented with 2 mM L-glutamine, 10% FBS, 100 U/mL penicillin-G and 100 μg/mL streptomycin. The cells are incubated at 37° C., 5% CO2 and relatively saturated humidity. After reaching 80-90% confluency, the cells are gently detached with 0.05% trypsin-EDTA solution.
TB and dosing solutions were pre-warmed to 37° C. before transport assay. The cell monolayer was washed twice with HBSS containing 10 mM HEPES. For A-B (apical to basolateral) directional transport assay, 75 μL dosing solution is added to the apical well. Fill each basolateral well with 250 μL TB. For B-A (basolateral to apical) directional transport assay, 250 μL of dosing solution is added to the basolateral well after filling each apical well with 75 μL TB. […] The plates are incubated for 120 minutes at 37° C. with 5% CO2 and saturated humidity. The time zero samples are generated by mixing 50 μL initial dosing solution of test compound or reference compound with 100 μL TB and 250 μL quench solution (acetonitrile (ACN) or other appropriate solvent with internal standard(s), based on the bioanalytical method development). At 120 minutes, 150 μL of solution is collected from each A-B receiver well followed by addition of 250 μL quench solution to get A-B receiver sample. And for other samples (A-B donor, B-A donor and receiver), 50 μL of solution is collected from each corresponding well followed by addition of 250 μL quench solution and 100 μL TB. All samples are vortex-mixed and centrifuged at 3220 g for 20 minutes. Subsequently, supernatant is diluted with ultra pure water for LC-MS/MS analysis. The concentrations of test compound in all samples are determined by LC-MS/MS and expressed as peak area ratio of analyte to internal standard.
The concentration of samples is expressed using the peak area ratio of Analyte to Internal Standard (Analyte/IS).
The efflux ratio is calculated using the following equation: Efflux ratio=Papp(A−B)/Papp(B−A) • where Papp (A−B) and Papp (B−A) are the Papp values of compound in Apical to Basolateral and Basolateral to Apical directional transport, respectively.
In data set [3] the target is T1, A2A receptor. The experiment in a line: Human IL-2 T cell assay (restoration of IL-2 production in CGS-21680-treated CD3+ T cells). Further details: endogenous in cells; host or cells: human CD3+ T cells isolated from venous blood of healthy volunteers. It is filed as cell-based. The source says:
When T-cells are activated, they produce pro-inflammatory cytokines. When the A2A receptor is activated in T cells, the amount of cytokines produced in response to stimulation of T-cells is reduced.
Venous blood from healthy volunteers, all of whom signed an informed consent approved by the Ethics Committee (FOR-UIC-BV-050-01-01 ICF_HBS_HD Version 5.0), was obtained via ImmuneHealth (Centre Hospitalier Universitaire Tivoli, La Louviere, Belgium). Mononuclear cells were collected by density gradient centrifugation, using SepMate-50 tubes (StemCell Technologies, Grenoble, France) and Lymphoprep (Axis-shield, Oslo, Norway) according to the manufacturer's instructions. CD3+ T cells were isolated by immunomagnetic negative selection, using the EasySep Human T Cell Isolation Kit (StemCell Technologies) as per manufacturer's instructions. CD3+ T cells were stored in heat inactivated foetal bovine serum (hiFBS; Gibco, ThermoFisher Scientific, Merelbeke, Belgium) containing 10% DMSO in liquid nitrogen.
Human purified CD3+ T cells were thawed and washed twice with RPMI1640 medium (with UltraGlutamine; Lonza, Verviers, Belgium) supplemented with 1× non-essential amino acids (Lonza), 2% Pen/Strep (Lonza) and 1 mM Sodium Pyruvate (Gibco) (complete media), containing 10% hiFBS. The cells were suspended either in complete media containing 20% hiFBS or in 100% heat inactivated human serum (hiHS; Sigma-Aldrich, Diegem, Belgium). Cells were activated by adding anti-CD3 and anti-CD28 coated microbeads (Dynabeads human T-activator CD3/CD28; Life Technologies, Paisley, UK), suspended either in complete media containing 20% hiFBS or in 100% hiHS. […] Serial dilutions of the compounds of the present invention were prepared and added to the wells. The cells were placed in a 37° C. humidified tissue culture incubator with 5% CO2 for 72 hours. After 72 hours, supernatants were sampled and IL-2 was quantified using the IL-2 (human) AlphaLISA Biotin-Free Detection Kit (AL333F; Perkin-Elmer, Zaventem, Belgium), according to the manufacturer's instructions.

[4] abbreviates: IC50 (nM) (3 nM NECA as agonist, 0.1% BSA), 3 nM NECA as agonist, 0.1% BSA.
Setting [5] is: IC50 (nM) (5 nM NECA as agonist, 2% HSA), 5 nM NECA as agonist, 2% HSA.
The mark [6] stands for this setting: IC50 (nM) (5 μM Adenosine as agonist, 2.0% HSA), 5 μM Adenosine as agonist, 2.0% HSA.
The mark [7] stands for this setting: IC50 (nM) (5000 nM CGS-21680 as agonist, 50% HSA), restoration of IL-2 production, human CD3+ T cells, anti-CD3/CD28 beads, 5000 nM CGS-21680, 50% HSA, 72 hours.
The mark [8] stands for this setting: IC50 (nM) (500 nM CGS-21680 as agonist, 10% FBS), restoration of IL-2 production, human CD3+ T cells, anti-CD3/CD28 beads, 500 nM CGS-21680, 10% FBS, 72 hours.
Where [9] appears, read: IC50 (nM) (500 nM CGS-21680 as agonist, 50% HSA), restoration of IL-2 production, human CD3+ T cells, anti-CD3/CD28 beads, 500 nM CGS-21680, 50% HSA, 72 hours.

T1 sequence (P29274 whole entry): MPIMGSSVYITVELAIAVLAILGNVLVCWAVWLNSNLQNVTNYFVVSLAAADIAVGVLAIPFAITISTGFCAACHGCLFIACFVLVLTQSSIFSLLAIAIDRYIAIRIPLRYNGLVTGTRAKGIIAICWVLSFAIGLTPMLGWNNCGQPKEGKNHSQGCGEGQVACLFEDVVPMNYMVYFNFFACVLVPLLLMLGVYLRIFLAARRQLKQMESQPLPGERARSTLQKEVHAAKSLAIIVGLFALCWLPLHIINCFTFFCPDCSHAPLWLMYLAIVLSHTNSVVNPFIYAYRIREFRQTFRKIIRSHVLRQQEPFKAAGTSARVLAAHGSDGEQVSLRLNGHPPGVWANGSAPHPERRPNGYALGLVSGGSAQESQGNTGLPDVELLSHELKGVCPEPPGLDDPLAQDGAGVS

`Nc1nc2c(sc(=O)n2CCN2CCN(c3ccc(OCc4c[nH]nn4)cc3F)CC2)c2nc(-c3ccco3)nn12` [Compound 1, 3-(2-(4-(4-((1H-1,2,3-triazol-4-yl)methoxy)-2-fluorophenyl)-piperazin-1-yl)ethyl)-5-amino-8-(furan-2-yl)thiazolo[5,4-e][1,2,4]triazolo[1,5-c]pyrimidin-2(3H)-one]: the IC50 stood at 0.6 nM in data set [1] (setting [4]), 9 nM in data set [1] (setting [5]), 511 nM in data set [1] (setting [6]) and 120 nM in data set [3] (setting [7]). In addition, the efflux ratio at 120 min, 2 μM in data set [2] amounted to 48.

On to `Nc1nc2c(sc(=O)n2CCN2CCN(c3ccc(OCc4n[nH]c(=O)o4)cc3F)CC2)c2nc(-c3ccco3)nn12` [Compound 2, 5-((4-(4-(2-(5-amino-8-(furan-2-yl)-2-oxothiazolo[5,4-e][1,2,4]triazolo[1,5-c]pyrimidin-3(2H)-yl)ethyl)piperazin-1-yl)-3-fluorophenoxy)methyl)-1,3,4-oxadiazol-2(3H)-one], for which the IC50 in data set [1] (setting [4]) worked out at 0.3 nM; in data set [1] (setting [5]) it was 17 nM; in data set [1] (setting [6]) it was 708 nM; in data set [3] (setting [8]), 0.9 nM; in data set [3] (setting [7]) it was 18 nM. For the same compound, the efflux ratio at 120 min, 2 μM in data set [2] came out at 28.

Turning to `CNCCNC(=O)c1ccc(N2CCN(CCn3c(=O)sc4c3nc(N)n3nc(-c5ccco5)nc43)CC2)c(F)c1` [Compound 31, 4-(4-(2-(5-amino-8-(furan-2-yl)-2-oxothiazolo[5,4-e][1,2,4]triazolo[1,5-c]pyrimidin-3(2H)-yl)ethyl)piperazin-1-yl)-3-fluoro-N-(2-(methylamino)ethyl)benzamide], the IC50 in data set [1] (setting [4]) turned out to be 0.4 nM; in data set [1] (setting [5]), 1 nM; in data set [1] (setting [6]), 42 nM; in data set [3], 8.3 nM; in data set [3] (setting [8]) it was 2.1 nM; in data set [3] (setting [9]), 5.4 nM. Besides, in data set [3] (setting [7]), the IC50 was determined as 14 nM. In addition, the efflux ratio at 120 min, 2 μM in data set [2] was 28.

Turning to `CN(C)CCNC(=O)c1ccc(N2CCN(CCn3c(=O)sc4c3nc(N)n3nc(-c5ccco5)nc43)CC2)c(F)c1` [Compound 32, 4-(4-(2-(5-amino-8-(furan-2-yl)-2-oxothiazolo[5,4-e][1,2,4]triazolo[1,5-c]pyrimidin-3(2H)-yl)ethyl)piperazin-1-yl)-N-(2-(dimethylamino)ethyl)-3-fluorobenzamide], the half-inhibitory concentration (IC50) came out at 4.3 nM in data set [1] (setting [4]), 7 nM in data set [1] (setting [5]), 356 nM in data set [1] (setting [6]) and 28 nM in data set [3] (setting [7]). Besides, the efflux ratio at 120 min, 2 μM in data set [2] was found to be 329.

Consider `Nc1nc2c(sc(=O)n2CCN2CCN(c3ccc(OCC(=O)O)cc3F)CC2)c2nc(-c3ccco3)nn12` [Compound 35, 2-(4-(4-(2-(5-amino-8-(furan-2-yl)-2-oxothiazolo[5,4-e][1,2,4]triazolo[1,5-c]pyrimidin-3(2H)-yl)ethyl)piperazin-1-yl)-3-fluorophenoxy)acetic acid], for which the IC50 in data set [1] (setting [4]) turned out to be 0.7 nM; in data set [1] (setting [5]), 13 nM; in data set [1] (setting [6]), 378 nM; in data set [3], 3.9 nM; in data set [3] (setting [8]), 0.6 nM; in data set [3] (setting [9]) it was 0.5 nM. In data set [3] (setting [7]), this compound yielded an IC50 of 84 nM. Further, in data set [2], the efflux ratio at 120 min, 2 μM turned out to be 26.

As for `CC(C)(Oc1ccc(N2CCN(CCn3c(=O)sc4c3nc(N)n3nc(-c5ccco5)nc43)CC2)c(F)c1)C(=O)O` [Compound 39, 2-(4-(4-(2-(5-amino-8-(furan-2-yl)-2-oxothiazolo[5,4-e][1,2,4]triazolo[1,5-c]pyrimidin-3(2H)-yl)ethyl)piperazin-1-yl)-3-fluorophenoxy)-2-methylpropanoic acid], the IC50 in data set [1] (setting [4]) is 0.8 nM; in data set [1] (setting [5]), 15 nM; in data set [1] (setting [6]) it was 719 nM; in data set [3], 5.3 nM; in data set [3] (setting [8]), 1 nM; in data set [3] (setting [9]) it was 12 nM. The same compound showed an IC50 in data set [3] (setting [7]) of 150 nM. Moreover, the efflux ratio at 120 min, 2 μM in data set [2] was 110.

`Nc1nc2c(sc(=O)n2CCN2CCN(c3cc(OCC(=O)O)c(F)cc3F)CC2)c2nc(-c3ccco3)nn12` [Compound 43, 2-(5-(4-(2-(5-amino-8-(furan-2-yl)-2-oxothiazolo[5,4-e][1,2,4]triazolo[1,5-c]pyrimidin-3(2H)-yl)ethyl)piperazin-1-yl)-2,4-difluorophenoxy)acetic acid]: the half-inhibitory concentration (IC50) came out at 0.2 nM in data set [1] (setting [4]), 1 nM in data set [1] (setting [5]), 36 nM in data set [1] (setting [6]) and 51 nM in data set [3] (setting [7]). Besides, in data set [2], the efflux ratio at 120 min, 2 μM was 164.

`Nc1nc2c(sc(=O)n2CCN2CCN(c3ccc(C(=O)O)cc3F)CC2)c2nc(-c3ccco3)nn12` [Compound 44, 4-(4-(2-(5-amino-8-(furan-2-yl)-2-oxothiazolo[5,4-e][1,2,4]triazolo[1,5-c]pyrimidin-3(2H)-yl)ethyl)piperazin-1-yl)-3-fluorobenzoic acid]: the IC50 in data set [1] (setting [4]) is 0.5 nM; in data set [1] (setting [5]) it was 11 nM; in data set [1] (setting [6]), 127 nM; in data set [3] (setting [7]) it was 33 nM. Besides, the efflux ratio at 120 min, 2 μM in data set [2] came out at 69.

Take `Nc1nc2c(sc(=O)n2CCN2CCN(c3ccc(OCc4nc[nH]n4)cc3F)CC2)c2nc(-c3ccco3)nn12` [Compound 49, 3-(2-(4-(4-((1H-1,2,4-triazol-3-yl)methoxy)-2-fluorophenyl)piperazin-1-yl)ethyl)-5-amino-8-(furan-2-yl)thiazolo[5,4-e][1,2,4]triazolo[1,5-c]pyrimidin-2(3H)-one]: the IC50 in data set [1] (setting [4]) was 0.5 nM; in data set [1] (setting [5]), 16 nM; in data set [1] (setting [6]), 465 nM; in data set [3] (setting [7]) it was 61 nM. Besides, the efflux ratio at 120 min, 2 μM in data set [2] is 97.

As for `CNCCNC(=O)COc1ccc(N2CCN(CCn3c(=O)sc4c3nc(N)n3nc(-c5ccco5)nc43)CC2)c(F)c1` [Compound 50, 2-(4-(4-(2-(5-amino-8-(furan-2-yl)-2-oxothiazolo[5,4-e][1,2,4]triazolo[1,5-c]pyrimidin-3(2H)-yl)ethyl)piperazin-1-yl)-3-fluorophenoxy)-N-(2-(methylamino)ethyl)acetamide], the IC50 in data set [1] (setting [4]) came to 0.3 nM; in data set [1] (setting [6]), 13 nM; in data set [3], 4.3 nM; in data set [3] (setting [8]), 1 nM; in data set [3] (setting [9]), 2.2 nM; in data set [3] (setting [7]), 28 nM. In addition, the efflux ratio at 120 min, 2 μM in data set [2] came out at 38.

On to `Nc1nc2c(sc(=O)n2CCN2CCN(c3ccc(C(=O)N4CC[S+]([O-])CC4)cc3F)CC2)c2nc(-c3ccco3)nn12` [Compound 125, 5-amino-3-(2-(4-(2-fluoro-4-(1-oxidothiomorpholine-4-carbonyl)phenyl)piperazin-1-yl)ethyl)-8-(furan-2-yl)thiazolo[5,4-e][1,2,4]triazolo[1,5-c]pyrimidin-2(3H)-one], for which the figures for the 50% inhibitory concentration (IC50) in data set [1] (setting [4]) and in data set [1] (setting [6]) were 2.6 nM and 3620 nM, respectively. In addition, the efflux ratio at 120 min, 2 μM in data set [2] is 127.

`Nc1nc2c(sc(=O)n2CCN2CCN(c3ccc(N4CC[S+]([O-])CC4)cc3F)CC2)c2nc(-c3ccco3)nn12` [Compound 126, 5-amino-3-(2-(4-(2-fluoro-4-(1-oxidothiomorpholino)phenyl)piperazin-1-yl)ethyl)-8-(furan-2-yl)thiazolo[5,4-e][1,2,4]triazolo[1,5-c]pyrimidin-2(3H)-one]: the 50% inhibitory concentration (IC50) in data set [1] (setting [4]) turned out to be 0.6 nM; in data set [1] (setting [6]) it was 78 nM. The efflux ratio at 120 min, 2 μM in data set [2] came out at 83.

For `Nc1nc2c(sc(=O)n2CCN2CCN(c3cc(OC[C@H](O)CO)c(F)cc3F)CC2)c2nc(-c3ccco3)nn12` [Compound 128, (R)-5-amino-3-(2-(4-(5-(2,3-dihydroxypropoxy)-2,4-difluorophenyl)piperazin-1-yl)ethyl)-8-(furan-2-yl)thiazolo[5,4-e][1,2,4]triazolo[1,5-c]pyrimidin-2(3H)-one], the values for the 50% inhibitory concentration (IC50) in data set [1] (setting [4]) and in data set [1] (setting [6]) were 0.4 nM and 46 nM, respectively. In addition, in data set [2], the efflux ratio at 120 min, 2 μM stood at 419.
